# Paper PMC6835763, “Influence of Short Cationic Lipopeptides with Fatty Acids of Different Chain Lengths on Bacterial Biofilms Formed on Polystyrene and Hydrogel Surfaces” (Pharmaceutics, 2019)
# Where a SMILES comes first, the peptide text is derived from it. Bridges are numbered along the chain shown (N, C = ends). Roman numbers before positions name the chains, in order. The star is where a group is joined. Palmitoyl = CCCCCCCCCCCCCCCC(=O)*; Lauroyl = CCCCCCCCCCCC(=O)*
# Legend:
# [1] = system: Enterococcus faecalis ATCC 29212; format: cell-based; details: ATCC 29212, 24 h
# Protocol: (§1) The biofilms of bacteria associated with the biofilm-related infections were cultured on 96-well flat bottom PS and on CL placed in 24-well plates. The bacteria at initial inoculums of 5 × 10^8 CFU/mL in MHB II were added to the plates and incubated at 37 °C under aerobic conditions. After 24 h of incubation, all cultures were rinsed three times with PBS and fresh medium was added. Subsequently, the obtained biofilm cultures were exposed to solutions of antimicrobials applied at graded concentrations ranging from 1 to 512 μg/mL for 24 h at 37 °C. The anti-biofilm activity of antimicrobials was visualized by resazurin (final concentration per sample = 0.005%) in the same way as in the MBFIC assay. All experiments were performed in triplicate and included growth controls (positive control: bacterial suspension without antimicrobials) and sterility controls (negative controls: sterile MBH II medium).
# [2] = system: Staphylococcus epidermidis ATCC 14990; format: cell-based; details: ATCC 14990, 24 h
# Protocol: as §1
# [3] = system: Escherichia coli ATCC 25922; format: cell-based; details: ATCC 25922, 24 h
# Protocol: as §1
# [4] = system: Proteus mirabilis PCM 543; format: cell-based; details: PCM 543, 24 h
# Protocol: as §1
# [5] = system: Staphylococcus aureus ATCC 25923; format: cell-based; details: ATCC 25923, 24 h
# Protocol: as §1
# [6] = system: Pseudomonas aeruginosa ATCC 9027; format: cell-based; details: ATCC 9027, 24 h
# Protocol: as §1
# [7] = system: Enterococcus faecalis ATCC 29212; format: cell-based; details: ATCC 29212, 18 h
# Protocol: (§2) The reference strains of gram-positive and gram-negative bacteria (Table 2) were obtained from the Polish Collection of Microorganisms (Polish Academy of Science, Wroclaw, Poland). The microorganisms were cultured in Muller Hinton Broth II (MHB II, Biocorp, Warsaw, Poland), overnight, at 37 °C. The MICs of synthetic lipopeptides and conventional antimicrobials were determined using the broth microdilution method according to the Clinical and Laboratory Standard Institute (CLSI) guidelines on reference strains. […] The PS were incubated under aerobic conditions at 37 °C for 18 h. The MIC (μg/mL) was assumed as the lowest concentration of the compound that inhibited the growth of the microorganisms. All experiments were performed in triplicate and included the growth and sterility controls.
# [8] = system: Staphylococcus epidermidis ATCC 14990; format: cell-based; details: ATCC 14990, 18 h
# Protocol: as §2
# [9] = system: Escherichia coli ATCC 25922; format: cell-based; details: ATCC 25922, 18 h
# Protocol: as §2
# [10] = system: Staphylococcus aureus ATCC 25923; format: cell-based; details: ATCC 25923, 18 h
# Protocol: as §2
# [11] = system: Pseudomonas aeruginosa ATCC 9027; format: cell-based; details: ATCC 9027, 18 h
# Protocol: as §2
# [12] = RP-HPLC retention to evaluate the hydrophobicity of lipopeptides; format: physicochemical; details: chromatographic, Luna C18(2) 3.0 × 100 mm, 5.0 µm, linear 20–80% acetonitrile in water over 10 min, 0.1% formic acid, 0.5 mL/min, UV 214 nm, used to evaluate hydrophobicity
# Protocol: The crude peptide was lyophilized and subsequently purified by RP-HPLC. The purifications were carried out on a Phenomenex Gemini-NX C18 column (21.20 × 100 mm, 5.0 µm particle size, and 110 Å pore size). Acetonitrile and water, both containing 0.1% of TFA, were used as the mobile phase. UV detection at 214 nm was used. The crude peptides were eluted with a linear 20–80% acetonitrile gradient in deionized water over 60 min at a flow rate of 10.0 mL/min. The purity and identity of the peptides were confirmed with LC-MS analysis. A Waters Alliance e2695 RP-HPLC system (Waters, Milford, MA, USA) with Waters 2998 PDA (Waters, Milford, MA, USA) and Acquity QDA detectors (Empower®3 software, Database Version 7.21.00.00) was used. All analyses were carried out on a Phenomenex, Luna C18(2) column (3.0 × 100 mm, 5.0 µm particle size, 100 Å pore size). The samples were analyzed with a linear 20–80% acetonitrile gradient in deionized water over 10 min at a flow rate of 0.5 mL/min with UV detection at 214 nm. Both eluents contained 0.1% (v/v) of formic acid. The pure fractions (>95%, by HPLC analysis) were collected and lyophilized. The retention time and percentage of ACN (%) at which each peptide was eluted are included in Table 1 to evaluate the hydrophobicity of lipopeptides. The identity of all compounds was confirmed using mass spectrometry (Waters Alliance e2695 system with Acquity QDA detector, Waters, Milford, MA, USA) with electrospray ionization in positive ion mode (ESI-MS). In this mode, a proton is attached to basic moieties (amine groups, guanidine groups). The theoretical mass of the peptide was calculated and then expected ions (m/z—mass to charge ratio) were compared to measured m/z. The results are presented in Table 1, and mass spectra are presented in the Supplementary Materials.
# [13] = system: Enterococcus faecalis ATCC 29212; experiment: MBFIC assay (biofilm formation inhibition, resazurin); format: cell-based; details: ca. 5 × 10^8 CFU/mL in MHB II, 37 °C, 18 h, visual, triplicate; for MBFIC E. faecalis, CL: contact lenses (CL, Etafilcon A hydrogel) in 24-well plates; for MBFIC E. faecalis, PS: polystyrene plates (PS), 96-well
# Protocol: (§3) To determine the inhibitory effect of antimicrobials on the formation of biofilm on hydrophobic surfaces, the bacterial suspensions of strains (initial inoculum of ca. 5 × 10^8 CFU/mL in MHB II medium supplemented with antimicrobials) were cultured on 96-well PS at 37 °C for 18 h under aerobic conditions. After incubation, the suspensions were aspirated, and the wells were rinsed three times with sterile phosphate buffer PBS (AppliChem, Darmstadt, Germany) in order to remove the planktonic cells. Resazurin (final concentration per sample = 0.005%) was applied as a cell viability reagent for reading the results. In contact with the living cells, the dye is metabolized by bacterial dehydrogenases, resulting in a reduction of blue resazurin to pink resorufin. All assays were performed in triplicate and included the growth controls (positive controls: bacterial suspensions without antimicrobials) and the sterility controls (negative controls: a sterile MBH medium). After 1h of incubation, a visual evaluation of results was made. […] In a preliminary study, it was established that the application of lipopeptides at a concentration found active from visual evaluation caused the reduction of bacterial metabolism to approximately 10% (or less) of the positive control once the results were evaluated with a spectrophotometer. After 1 h of incubation with the dye, absorbance was measured at 570 and 600 nm using a microplate reader (Thermo Fisher Scientific, Waltham, MA, USA). The metabolic activity of bacteria in the samples was measured according to the formula presented in the previous paper.
# (§4) The MBFIC assay with CL was applied in order to access the influence of lipopeptides on the biofilm formation on hydrogel surfaces. The entire sterile CL (1-Day Acuvue Moist, containing Etafilcon A., purchased from Johnson & Johnson (Vision Care, Jacksonsville, FL, USA), were placed in 24-well PS (Orange Scientific, Braine-l’ Alleud, Belgium) and the MBFICs were determined according to the above protocol.
# [14] = system: Staphylococcus epidermidis ATCC 14990; experiment: as above; format: cell-based; details: ca. 5 × 10^8 CFU/mL in MHB II, 37 °C, 18 h, resazurin, visual, triplicate; for MBFIC S. epidermidis, CL: contact lenses (CL, Etafilcon A hydrogel) in 24-well plates; for MBFIC S. epidermidis, PS: polystyrene plates (PS), 96-well
# Protocol: as §3, §4
# [15] = system: Escherichia coli ATCC 25922; experiment: as above; format: cell-based; details: ca. 5 × 10^8 CFU/mL in MHB II, 37 °C, 18 h, visual, triplicate; for MBFIC E. coli, CL: contact lenses (CL, Etafilcon A hydrogel) in 24-well plates; for MBFIC E. coli, PS: polystyrene plates (PS), 96-well
# Protocol: as §3, §4
# [16] = system: Proteus mirabilis PCM 543; experiment: as above; format: cell-based; details: ca. 5 × 10^8 CFU/mL in MHB II, 37 °C, 18 h, visual, triplicate; for MBFIC P. mirabilis, CL: contact lenses (CL, Etafilcon A hydrogel) in 24-well plates; for MBFIC P. mirabilis, PS: polystyrene plates (PS), 96-well
# Protocol: as §3, §4
# [17] = system: Staphylococcus aureus ATCC 25923; experiment: as above; format: cell-based; details: ca. 5 × 10^8 CFU/mL in MHB II, 37 °C, 18 h, resazurin, visual, triplicate; for MBFIC S. aureus, CL: contact lenses (CL, Etafilcon A hydrogel) in 24-well plates; for MBFIC S. aureus, PS: polystyrene plates (PS), 96-well
# Protocol: as §3, §4
# [18] = system: Pseudomonas aeruginosa ATCC 9027; experiment: as above; format: cell-based; details: ca. 5 × 10^8 CFU/mL in MHB II, 37 °C, 18 h, visual, triplicate; for MBFIC P. aeruginosa, CL: contact lenses (CL, Etafilcon A hydrogel) in 24-well plates; for MBFIC P. aeruginosa, PS: polystyrene plates (PS), 96-well
# Protocol: as §3, §4
# SA biofilms = system: SA biofilms; set-up: method as in PMID 24779193; details: cited from earlier work
# PA biofilm = details: cited from earlier work
# Text: (§5) They were ineffective against PM, which was difficult to eradicate with peptides (and antibiotics) in previously performed studies. PM can cause infections of the urinary tract, skin, subcutaneous tissue, and wounds. PM is known as a biofilm former, and an evident increase of PM resistance to broad-spectrum fluoroquinolones and cephalosporins has been observed. In the previous study, mature PM b ...
# EC biofilm = details: cited from earlier work
# Text: as §5
# PM biofilm = details: cited from earlier work
# Text: as §5
Molecule,"MBEC E. faecalis, CL [1]","MBEC S. epidermidis, CL [2]","MBEC E. coli, CL [3]","MBEC P. mirabilis, CL [4]","MBEC S. aureus, CL [5] [µg/mL]","MBEC P. aeruginosa, CL [6]",MIC E. faecalis [7] [µg/mL],MIC S. epidermidis [8] [µg/mL],MIC E. coli [9] [µg/mL],MIC S. aureus [10] [µg/mL],MIC P. aeruginosa [11] [µg/mL],% ACN at which the peptide was eluted [12] [%],tR' (adjusted retention time) [12] [min],"MBFIC E. faecalis, CL [13]","MBFIC E. faecalis, PS [13]","MBFIC S. epidermidis, CL [14] [µg/mL]","MBFIC S. epidermidis, PS [14] [µg/mL]","MBFIC E. coli, CL [15] [µg/mL]","MBFIC E. coli, PS [15] [µg/mL]","MBFIC P. mirabilis, CL [16]",further results
"CCCCCCCCCCCC(=O)N[C@@H](CCCCN)C(=O)N[C@@H](CCCNC(=N)N)C(N)=O [Lipopeptide 2, C12-KR-NH2] (Lauroyl-Lys-Arg-NH2)",128 µg/mL,256 µg/mL,512 µg/mL,>512/>512 μg/mL,> 512,>512/>512 μg/mL,64,32,512,64,512,33.9,2.32,512/512 μg/mL,512/512 μg/mL,32,16,128,512,>512/512 μg/mL,"MBFIC P. mirabilis, PS [16]: >512/512 μg/mL; MBFIC S. aureus, CL [17]: 128 µg/mL; MBFIC S. aureus, PS [17]: 64 µg/mL; MBFIC P. aeruginosa, CL [18]: 512/512 μg/mL; MBFIC P. aeruginosa, PS [18]: 512/512 μg/mL"
"CCCCCCCCCCCCCCCC(=O)N[C@@H](CCCCN)C(=O)N[C@@H](CCCCN)C(=O)N[C@@H](CSSC[C@H](NC(=O)[C@H](CCCCN)NC(=O)[C@H](CCCCN)NC(=O)CCCCCCCCCCCCCCC)C(N)=O)C(N)=O [Lipopeptide 6, C16-KKC-NH2] (I: Palmitoyl-Lys-Lys-Cys-NH2 / II: Palmitoyl-Lys-Lys-Cys-NH2; disulfide I:3-II:3)",512/512 μg/mL,256/256 μg/mL,512/512 μg/mL,>512/>512 μg/mL,512,>512/>512 μg/mL,256,128,256,256,256,47.8,4.63,256/256 μg/mL,256/256 μg/mL,64,256,128,512,>512/512 μg/mL,"MBFIC P. mirabilis, PS [16]: >512/512 μg/mL; MBFIC S. aureus, CL [17]: 64 µg/mL; MBFIC S. aureus, PS [17]: 256 µg/mL; MBFIC P. aeruginosa, CL [18]: 256 µg/mL; MBFIC P. aeruginosa, PS [18]: 512 µg/mL"
O=C(N[C@H](CO)[C@H](O)c1ccc([N+](=O)[O-])cc1)C(Cl)Cl [chloramphenicol],,,,,,,,,,,,,,,,,,,,,susceptibility of SA biofilms (SA biofilms): resistant; activity against PA biofilm (PA biofilm): weak antibiofilm agents; activity against EC biofilms (EC biofilm): rather weak activity
O=C(O)c1cn(C2CC2)c2cc(N3CCNCC3)c(F)cc2c1=O [ciprofloxacin],,,,,,,,,,,,,,,,,,,,,susceptibility of SA biofilms (SA biofilms): resistant; concentration eliminating PA biofilm (PA biofilm; 3-day-old structures): 4 µg/mL; susceptibility of mature PM biofilms (PM biofilm): resistant; effective concentration against EC biofilm (EC biofilm): 1 µg/mL
C16-KK-NH2 [Lipopeptide C16-KK-NH2],,,,,,,,,,,,,,,,,,,,,concentration eradicating the PM biofilm (PM biofilm; mature PM biofilms): 512 µg/mL
